From ChEMBL document CHEMBL1152288, “Characterization of thien-2-yl 1S,2R-milnacipran analogues as potent norepinephrine/serotonin transporter inhibitors for the treatment of neuropathic pain” (J Med Chem, 2008)
The source made the active and inactive calls. No cut-off for these calls is given here.

Legend:
[1] = molecular target: Voltage-gated inwardly rectifying potassium channel KCNH2 (Homo sapiens, UniProt Q12809)
Description: Inhibition of human ERG expressed in HEK293 cells by patch-clamp method

[2] = molecular target: Sodium-dependent serotonin transporter (Homo sapiens, UniProt P31645); assay: biochemical
Description: Displacement of [alpha,beta-3H(N)]-5-hydroxytryptamine from human cloned SERT expressed in HEK293 cells by microplate scintillation counter

[3] = molecular target: Sodium-dependent dopamine transporter (Homo sapiens, UniProt Q01959); assay: biochemical
Description: Displacement of 3,4-[ring-2,5,6-3H]dihydroxyphenylethylamine from human cloned DAT expressed in HEK293 cells by microplate scintillation counter

[4] = Metabolic stability in rat liver microsomes assessed as systemic clearance at 1 uM after 15 mins by LC-MS/MS analysis; type: ADME, Microsome
[5] = in vitro; details: human, Caco-2
Description: Apparent permeability from apical to basolateral side of the human Caco-2 cells

[6] = Metabolic stability in human liver microsomes assessed as systemic clearance at 1 uM after 15 mins by LC-MS/MS analysis; type: ADME, Microsome
[7] = molecular target: Sodium-dependent noradrenaline transporter (Homo sapiens, UniProt P23975); assay: biochemical
Description: Displacement of Levo[ring-2,5,6-3H]norepinephrine from human cloned NET expressed in HEK293 cells by microplate scintillation counter

[8] = Mean residence time in Sprague-Dawley rat at 2.5 mg/kg, iv; type: ADME, organism-based; set-up: dose 2.5 mg/kg, route intravenous; details: in vivo
[9] = Apparent oral clearance in Sprague-Dawley rat at 10 mg/kg, po; type: ADME, organism-based; set-up: dose 10 mg/kg, route oral; details: in vivo
[10] = Apparent elimination half life in Sprague-Dawley rat at 10 mg/kg, po; type: ADME, organism-based; set-up: dose 10 mg/kg, route oral; details: in vivo, read-out: beta t1/2 (converted)
[11] = molecular target: Sodium-dependent serotonin transporter (Rattus norvegicus, UniProt P31652); type: cell-based, HEK293
[12] = molecular target: Sodium-dependent dopamine transporter (Rattus norvegicus, UniProt P23977); assay: biochemical
Description: Displacement of 3,4-[ring-2,5,6-3H]dihydroxyphenylethylamine from rat synaptosomal DAT expressed in HEK293 cells by microplate scintillation counter

[13] = in vivo; details: Sprague-Dawley, rat, brain/plasma, po, 10 mg/kg
Description: Ratio of drug level in brain to plasma in Sprague-Dawley rat at 10 mg/kg, po after 4 hrs

[14] = molecular target: Transporter (Rattus norvegicus, UniProt Q63380); assay: biochemical
Description: Displacement of Levo[ring-2,5,6-3H]norepinephrine from rat synaptosomal NET expressed in HEK293 cells by microplate scintillation counter

[15] = system: Rattus norvegicus; assay: Antinociceptive activity in CD rat assessed as reduction in number of hind paw flinching at 60 mg/kg, po by formalin test; type: functional; set-up: scale not given: the % may be the effect or the level left
[16] = Lipophilicity, log D of the compound; type: physicochemical; details: octanol/water
[17] = Cmax in Sprague-Dawley rat at 10 mg/kg, po; type: ADME, organism-based; set-up: dose 10 mg/kg, route oral; details: in vivo
[18] = Bioavailability in Sprague-Dawley rat at 2.5 mg/kg, iv; type: ADME, organism-based; details: in vivo
[19] = Plasma clearance in Sprague-Dawley rat at 2.5 mg/kg, iv; type: ADME, organism-based; set-up: dose 2.5 mg/kg, route intravenous
[20] = Half life in Sprague-Dawley rat at 2.5 mg/kg, iv; type: ADME, organism-based; set-up: dose 2.5 mg/kg, route intravenous; details: in vivo
[21] = Tmax in Sprague-Dawley rat at 10 mg/kg, po; type: ADME, organism-based; set-up: dose 10 mg/kg, route oral; details: in vivo
[22] = AUC in Sprague-Dawley rat at 10 mg/kg, po; type: ADME, organism-based; set-up: dose 10 mg/kg, route oral; details: plasma
[23] = in vivo; details: Sprague-Dawley, rat, brain/plasma, po, 10 mg/kg; remark: listed apart in the source
Description: Ratio of drug level in brain to plasma in Sprague-Dawley rat at 10 mg/kg, po after 1 hr

[24] = system: Rattus norvegicus; assay: Antinociceptive activity in CD rat assessed as reduction in number of hind paw flinching at 100 mg/kg, po by formalin test; type: functional, organism-based; set-up: dose 100 mg/kg
[25] = Partition coefficient, log P of the compound; type: physicochemical; details: octanol/water
[26] = physchem
Description: Dissociation constant, pKa of the compound

[27] = Volume of distribution in Sprague-Dawley rat at 2.5 mg/kg, iv; type: ADME, organism-based; set-up: dose 2.5 mg/kg, route intravenous; details: in vivo
[28] = AUC in Sprague-Dawley rat at 2.5 mg/kg, iv; type: ADME, organism-based; set-up: dose 2.5 mg/kg, route intravenous; details: plasma
[29] = species: Rattus norvegicus; assay: Reversal of pin-prick-induced neuropathic mechanical hyperalgesia in Harlan Sprague-Dawley rat sciatic nerve ligation model; type: functional, organism-based
[30] = Volume of distribution at steady state in Sprague-Dawley rat at 2.5 mg/kg, iv; type: ADME, organism-based; set-up: dose 2.5 mg/kg, route intravenous; details: in vivo, read-out: Vdss
[31] = AUC in Sprague-Dawley rat at 30 mg/kg, po; type: ADME, organism-based; set-up: dose 30 mg/kg, route oral; details: plasma
[32] = Apparent oral clearance in Sprague-Dawley rat at 30 mg/kg, po; type: ADME, organism-based; set-up: dose 30 mg/kg, route oral; details: in vivo
[33] = Drug level in Sprague-Dawley rat brain at 30 mg/kg, po after 4 hrs; type: ADME, organism-based; set-up: dose 30 mg/kg, route oral; details: read-out: Drug uptake
[34] = Ratio of drug level in brain to plasma in Sprague-Dawley rat at 30 mg/kg, po after 4 hrs; type: ADME, organism-based; set-up: dose 30 mg/kg, route oral
[35] = Drug level in Sprague-Dawley rat brain at 30 mg/kg, po after 1 hr; type: ADME, organism-based; set-up: dose 30 mg/kg, route oral; details: read-out: Drug uptake
[36] = Apparent elimination half life in Sprague-Dawley rat at 30 mg/kg, po; type: ADME, organism-based; set-up: dose 30 mg/kg, route oral; details: in vivo, read-out: beta t1/2 (converted)
[37] = Cmax in Sprague-Dawley rat at 30 mg/kg, po; type: ADME, organism-based; set-up: dose 30 mg/kg, route oral; details: in vivo
[38] = Tmax in Sprague-Dawley rat at 30 mg/kg, po; type: ADME, organism-based; set-up: dose 30 mg/kg, route oral; details: in vivo
[39] = Ratio of drug level in brain to plasma in Sprague-Dawley rat at 30 mg/kg, po after 1 hr; type: ADME, organism-based; set-up: dose 30 mg/kg, route oral
[40] = Half life in mouse at 5 mg/kg, iv or 30 mg/kg, po; type: ADME, organism-based; details: in vivo
[41] = Renal clearance in monkey at 5 mg/kg, iv or 30 mg/kg, po; type: ADME, organism-based, Macaca mulatta, Kidney; details: rhesus monkey, in vivo; read-out: CL_renal
[42] = AUC in mouse at 5 mg/kg, iv or 30 mg/kg, po; type: ADME, organism-based; details: plasma
[43] = Plasma clearance in mouse at 5 mg/kg, iv or 30 mg/kg, po; type: ADME, organism-based
[44] = Volume of distribution at steady state in Beagle dog at 5 mg/kg, iv or 30 mg/kg, po; type: ADME, organism-based, Canis lupus familiaris; details: in vivo, read-out: Vdss
[45] = Tmax in mouse at 5 mg/kg, iv or 30 mg/kg, po; type: ADME, organism-based; details: in vivo
[46] = AUC in Beagle dog at 5 mg/kg, iv or 30 mg/kg, po; type: ADME, organism-based, Canis lupus familiaris; details: plasma
[47] = Volume of distribution at steady state in mouse at 5 mg/kg, iv or 30 mg/kg, po; type: ADME, organism-based; details: in vivo, read-out: Vdss
[48] = Bioavailability in mouse at 5 mg/kg, iv or 30 mg/kg, po; type: ADME, organism-based; details: in vivo
[49] = Cmax in monkey at 5 mg/kg, iv or 30 mg/kg, po; type: ADME, organism-based, Macaca mulatta; details: rhesus monkey, in vivo
[50] = Tmax in Beagle dog at 5 mg/kg, iv or 30 mg/kg, po; type: ADME, organism-based, Canis lupus familiaris; details: in vivo
[51] = Volume of distribution at steady state in monkey at 5 mg/kg, iv or 30 mg/kg, po; type: ADME, organism-based, Macaca mulatta; details: rhesus monkey, in vivo, read-out: Vdss
[52] = Plasma clearance in Beagle dog at 5 mg/kg, iv or 30 mg/kg, po; type: ADME, organism-based, Canis lupus familiaris
[53] = Tmax in monkey at 5 mg/kg, iv or 30 mg/kg, po; type: ADME, organism-based, Macaca mulatta; details: rhesus monkey, in vivo
[54] = Bioavailability in Beagle dog at 5 mg/kg, iv or 30 mg/kg, po; type: ADME, organism-based, Canis lupus familiaris; details: in vivo
[55] = Cmax in mouse at 5 mg/kg, iv or 30 mg/kg, po; type: ADME, organism-based; details: in vivo, read-out: Vdss
[56] = Half life in Beagle dog at 5 mg/kg, iv or 30 mg/kg, po; type: ADME, organism-based, Canis lupus familiaris; details: in vivo
[57] = Bioavailability in monkey at 5 mg/kg, iv or 30 mg/kg, po; type: ADME, organism-based, Macaca mulatta; details: rhesus monkey, in vivo
[58] = Half life in monkey at 5 mg/kg, iv or 30 mg/kg, po; type: ADME, organism-based, Macaca mulatta; details: rhesus monkey, in vivo
[59] = Plasma clearance in monkey at 5 mg/kg, iv or 30 mg/kg, po; type: ADME, organism-based, Macaca mulatta; details: rhesus monkey
[60] = AUC in monkey at 5 mg/kg, iv or 30 mg/kg, po; type: ADME, organism-based, Macaca mulatta; details: rhesus monkey, plasma
[61] = Renal clearance in Beagle dog at 5 mg/kg, iv or 30 mg/kg, po; type: ADME, organism-based, Canis lupus familiaris, Kidney; details: in vivo, read-out: CL_renal

Chain of Sodium-dependent serotonin transporter (Homo sapiens, UniProt P31645) (P31645 whole entry): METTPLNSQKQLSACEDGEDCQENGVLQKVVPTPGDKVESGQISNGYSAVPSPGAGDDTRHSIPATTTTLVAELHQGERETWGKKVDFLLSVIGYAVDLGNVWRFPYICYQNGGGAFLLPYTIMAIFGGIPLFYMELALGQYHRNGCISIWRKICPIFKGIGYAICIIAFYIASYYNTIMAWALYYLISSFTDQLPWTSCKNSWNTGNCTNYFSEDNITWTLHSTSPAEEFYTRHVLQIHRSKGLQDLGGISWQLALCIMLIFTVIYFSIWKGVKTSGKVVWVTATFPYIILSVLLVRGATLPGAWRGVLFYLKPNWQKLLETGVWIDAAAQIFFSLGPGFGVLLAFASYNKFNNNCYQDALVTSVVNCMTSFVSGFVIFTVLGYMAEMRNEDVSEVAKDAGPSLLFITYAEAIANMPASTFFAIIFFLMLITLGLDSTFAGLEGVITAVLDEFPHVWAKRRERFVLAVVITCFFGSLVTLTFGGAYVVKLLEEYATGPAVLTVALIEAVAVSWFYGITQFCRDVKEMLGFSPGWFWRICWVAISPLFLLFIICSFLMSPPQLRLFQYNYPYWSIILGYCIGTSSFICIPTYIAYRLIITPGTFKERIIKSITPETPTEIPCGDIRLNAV
Chain of Sodium-dependent dopamine transporter (Homo sapiens, UniProt Q01959) (Q01959 whole entry): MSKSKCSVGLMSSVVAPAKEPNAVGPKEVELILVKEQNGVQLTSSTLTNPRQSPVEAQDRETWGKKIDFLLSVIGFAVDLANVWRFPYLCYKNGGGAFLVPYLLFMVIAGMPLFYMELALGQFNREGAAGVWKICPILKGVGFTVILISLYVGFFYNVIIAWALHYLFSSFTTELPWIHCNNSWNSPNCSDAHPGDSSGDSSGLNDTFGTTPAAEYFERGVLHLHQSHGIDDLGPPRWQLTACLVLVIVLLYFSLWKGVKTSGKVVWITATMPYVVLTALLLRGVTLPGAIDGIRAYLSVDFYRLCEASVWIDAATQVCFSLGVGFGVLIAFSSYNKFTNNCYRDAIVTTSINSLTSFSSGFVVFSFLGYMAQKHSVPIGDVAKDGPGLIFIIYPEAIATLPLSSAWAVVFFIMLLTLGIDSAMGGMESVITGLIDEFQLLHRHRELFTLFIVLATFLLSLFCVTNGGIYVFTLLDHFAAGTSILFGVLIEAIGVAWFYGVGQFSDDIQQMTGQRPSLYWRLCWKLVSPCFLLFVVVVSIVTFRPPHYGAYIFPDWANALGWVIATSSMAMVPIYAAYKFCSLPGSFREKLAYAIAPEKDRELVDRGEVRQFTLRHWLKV
Chain of Sodium-dependent noradrenaline transporter (P23975 whole entry): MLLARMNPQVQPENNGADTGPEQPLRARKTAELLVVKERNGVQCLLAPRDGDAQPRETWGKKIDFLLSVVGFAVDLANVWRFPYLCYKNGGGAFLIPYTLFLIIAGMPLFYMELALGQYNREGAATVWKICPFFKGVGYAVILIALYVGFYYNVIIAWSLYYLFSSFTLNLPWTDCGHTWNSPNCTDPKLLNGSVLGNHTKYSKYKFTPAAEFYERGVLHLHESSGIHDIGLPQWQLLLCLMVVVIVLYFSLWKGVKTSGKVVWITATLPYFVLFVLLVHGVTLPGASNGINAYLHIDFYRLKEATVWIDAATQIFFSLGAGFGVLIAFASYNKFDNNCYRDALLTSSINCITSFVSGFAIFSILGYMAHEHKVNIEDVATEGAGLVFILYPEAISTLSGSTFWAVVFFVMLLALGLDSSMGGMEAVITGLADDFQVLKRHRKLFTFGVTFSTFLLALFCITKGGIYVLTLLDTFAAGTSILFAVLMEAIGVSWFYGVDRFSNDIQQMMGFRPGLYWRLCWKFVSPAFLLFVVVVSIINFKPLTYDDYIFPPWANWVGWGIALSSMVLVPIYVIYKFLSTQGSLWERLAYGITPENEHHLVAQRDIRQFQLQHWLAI
Chain of Sodium-dependent serotonin transporter (Rattus norvegicus, UniProt P31652) (P31652 whole entry): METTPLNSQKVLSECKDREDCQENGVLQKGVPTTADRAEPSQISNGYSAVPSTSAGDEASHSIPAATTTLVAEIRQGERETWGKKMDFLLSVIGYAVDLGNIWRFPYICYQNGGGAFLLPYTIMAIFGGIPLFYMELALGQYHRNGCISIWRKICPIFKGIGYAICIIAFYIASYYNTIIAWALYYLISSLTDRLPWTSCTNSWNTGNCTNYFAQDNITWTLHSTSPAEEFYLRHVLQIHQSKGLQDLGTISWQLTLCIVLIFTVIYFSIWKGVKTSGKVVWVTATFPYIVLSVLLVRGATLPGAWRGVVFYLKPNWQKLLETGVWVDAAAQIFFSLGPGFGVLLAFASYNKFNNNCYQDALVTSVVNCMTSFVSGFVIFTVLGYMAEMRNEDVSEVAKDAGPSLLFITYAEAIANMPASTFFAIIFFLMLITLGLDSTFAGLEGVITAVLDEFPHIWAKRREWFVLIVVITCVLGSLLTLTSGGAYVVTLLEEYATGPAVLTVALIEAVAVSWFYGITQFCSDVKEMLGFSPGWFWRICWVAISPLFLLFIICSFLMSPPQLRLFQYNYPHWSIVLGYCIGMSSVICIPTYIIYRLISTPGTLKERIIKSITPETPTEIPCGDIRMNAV
Chain of Sodium-dependent dopamine transporter (Rattus norvegicus, UniProt P23977) (P23977 whole entry): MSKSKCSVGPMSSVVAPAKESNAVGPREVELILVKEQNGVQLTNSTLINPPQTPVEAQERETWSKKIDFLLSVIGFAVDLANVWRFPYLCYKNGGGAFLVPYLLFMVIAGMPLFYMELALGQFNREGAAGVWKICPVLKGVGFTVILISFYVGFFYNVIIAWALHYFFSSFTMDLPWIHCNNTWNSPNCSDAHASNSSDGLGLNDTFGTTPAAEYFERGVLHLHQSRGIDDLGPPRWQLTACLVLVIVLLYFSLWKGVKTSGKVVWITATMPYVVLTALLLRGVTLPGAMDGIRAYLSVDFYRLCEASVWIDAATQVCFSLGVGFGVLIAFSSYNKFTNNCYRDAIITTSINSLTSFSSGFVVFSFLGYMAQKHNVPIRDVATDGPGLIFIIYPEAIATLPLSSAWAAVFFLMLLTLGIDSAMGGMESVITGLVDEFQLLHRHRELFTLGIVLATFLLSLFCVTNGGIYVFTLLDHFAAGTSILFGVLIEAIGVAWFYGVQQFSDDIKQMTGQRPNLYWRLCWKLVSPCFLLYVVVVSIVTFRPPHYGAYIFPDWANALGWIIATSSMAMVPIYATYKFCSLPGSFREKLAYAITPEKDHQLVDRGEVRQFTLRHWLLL
Chain of Transporter (Q63380 whole entry): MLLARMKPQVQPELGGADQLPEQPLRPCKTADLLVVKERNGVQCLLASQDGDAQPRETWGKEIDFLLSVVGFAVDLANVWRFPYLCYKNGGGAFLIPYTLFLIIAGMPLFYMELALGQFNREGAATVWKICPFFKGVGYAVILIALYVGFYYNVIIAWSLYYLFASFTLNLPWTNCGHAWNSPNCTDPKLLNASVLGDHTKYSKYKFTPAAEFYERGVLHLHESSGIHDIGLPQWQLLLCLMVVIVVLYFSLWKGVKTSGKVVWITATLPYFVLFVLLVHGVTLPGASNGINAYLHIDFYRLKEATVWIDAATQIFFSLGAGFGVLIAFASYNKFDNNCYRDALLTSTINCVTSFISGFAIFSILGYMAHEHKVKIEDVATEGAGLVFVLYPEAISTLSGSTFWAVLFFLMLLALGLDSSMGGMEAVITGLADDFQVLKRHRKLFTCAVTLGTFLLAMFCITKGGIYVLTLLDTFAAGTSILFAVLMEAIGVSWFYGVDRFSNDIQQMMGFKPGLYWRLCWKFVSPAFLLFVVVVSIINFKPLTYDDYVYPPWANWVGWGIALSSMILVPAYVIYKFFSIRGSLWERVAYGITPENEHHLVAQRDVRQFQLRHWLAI
Chain of Voltage-gated inwardly rectifying potassium channel KCNH2 (Q12809 whole entry): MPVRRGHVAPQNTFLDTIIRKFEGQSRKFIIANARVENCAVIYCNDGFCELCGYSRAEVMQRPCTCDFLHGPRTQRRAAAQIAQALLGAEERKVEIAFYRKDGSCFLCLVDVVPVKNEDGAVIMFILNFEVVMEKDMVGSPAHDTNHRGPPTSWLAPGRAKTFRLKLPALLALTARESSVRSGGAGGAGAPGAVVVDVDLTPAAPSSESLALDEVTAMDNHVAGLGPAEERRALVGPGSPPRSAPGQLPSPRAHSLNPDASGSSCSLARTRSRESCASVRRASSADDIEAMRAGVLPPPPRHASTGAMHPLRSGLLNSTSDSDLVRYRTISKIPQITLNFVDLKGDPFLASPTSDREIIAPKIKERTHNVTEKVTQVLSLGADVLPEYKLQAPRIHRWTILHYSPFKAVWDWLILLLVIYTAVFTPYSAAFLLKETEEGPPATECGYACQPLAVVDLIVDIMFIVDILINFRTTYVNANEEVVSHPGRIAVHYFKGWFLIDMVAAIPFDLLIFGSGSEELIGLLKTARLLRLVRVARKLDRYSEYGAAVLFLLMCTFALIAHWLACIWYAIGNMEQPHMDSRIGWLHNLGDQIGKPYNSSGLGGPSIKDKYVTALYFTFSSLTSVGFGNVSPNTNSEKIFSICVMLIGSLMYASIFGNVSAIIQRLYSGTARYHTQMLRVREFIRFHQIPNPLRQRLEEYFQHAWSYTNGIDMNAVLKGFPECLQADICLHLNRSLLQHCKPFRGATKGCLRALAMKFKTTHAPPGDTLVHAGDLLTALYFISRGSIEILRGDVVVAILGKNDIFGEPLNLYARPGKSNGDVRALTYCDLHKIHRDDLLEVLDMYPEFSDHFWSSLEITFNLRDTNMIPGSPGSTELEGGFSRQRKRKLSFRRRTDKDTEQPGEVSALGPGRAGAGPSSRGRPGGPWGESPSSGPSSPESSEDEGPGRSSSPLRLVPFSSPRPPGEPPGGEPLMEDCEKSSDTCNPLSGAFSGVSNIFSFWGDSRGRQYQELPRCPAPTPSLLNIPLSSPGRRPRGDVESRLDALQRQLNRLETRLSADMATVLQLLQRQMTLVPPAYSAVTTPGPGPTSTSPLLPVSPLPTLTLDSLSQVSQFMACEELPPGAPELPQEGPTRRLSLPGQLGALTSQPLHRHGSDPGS

## C=CCN(C(=O)[C@@]1(c2cccs2)C[C@H]1CN)C1CC1
[1]
  IC50: > 10000 nM
[2]
  IC50: 45 nM
[3]
  IC50: > 10000 nM
[4]
  CLhep predicted at 1 µM: 63 mL/min/kg
[5]
  Papp A→B: 17.8 ×10⁻⁶ cm/s
[6]
  CLhep predicted at 1 µM: 5 mL/min/kg
[7]
  IC50: 17 nM

## CCN(CC)C(=O)[C@]1(c2ccccc2)C[C@H]1CN
[8]
  MRT: 0.52 h
[9]
  CL/F: 294 mL/min/kg
[10]
  half-life: 1.3 h
[11]
  IC50: 28 nM
[12]
  IC50: 20000 nM
[13]
  Kp at 4 h: 0.86
[14]
  IC50: 16 nM
[15]
  Activity: 56%
[16]
  logD: -0.2
[17]
  Cmax: 232 ng/mL
[18]
  bioavailability: 16%
[4]
  CLhep predicted at 1 µM: 24 mL/min/kg
[19]
  clearance: 58 mL/min/kg
[20]
  half-life: 0.8 h
[21]
  Tmax: 0.3 h
[22]
  AUC: 566 ng·h/mL
[23]
  Kp at 1 h: 0.42
[24]
  Activity: Active
[25]
  logP: 1.6
[26]
  pKa: 9.6
[27]
  Vd: 4.3 L/kg
[28]
  AUC: 897 ng·h/mL
[29]
  Activity: Dose-dependent effect
[30]
  Vd: 2 L/kg
[6]
  CLhep predicted at 1 µM: 5 mL/min/kg

## C=CCN(Cc1nccs1)C(=O)[C@@]1(c2cccs2)C[C@H]1CN
[2]
  IC50: 16 nM
[16]
  logD: -0.4
[3]
  IC50: > 10000 nM
[4]
  CLhep predicted at 1 µM: 47 mL/min/kg
[25]
  logP: 1.6
[26]
  pKa: 9.4
[5]
  Papp A→B: 6.4 ×10⁻⁶ cm/s
[6]
  CLhep predicted at 1 µM: 7 mL/min/kg
[7]
  IC50: 13 nM

## C#CCN(CC)C(=O)[C@@]1(c2cccs2)C[C@H]1CN
[31]
  AUC: 3210 ng·h/mL
[2]
  IC50: 81 nM
[32]
  CL/F: 156 mL/min/kg
[33]
  concentration at 4 h: 112 ng/g
[34]
  Kp at 4 h: 0.3
[35]
  concentration at 1 h: 230 ng/g
[11]
  IC50: 160 nM
[12]
  IC50: > 10000 nM
[14]
  IC50: 160 nM
[15]
  Activity: 56%
[16]
  logD: 0.1
[3]
  IC50: > 10000 nM
[36]
  half-life: 1.9 h
[4]
  CLhep predicted at 1 µM: 44 mL/min/kg
[37]
  Cmax: 649 ng/mL
[38]
  Tmax: 1.7 h
[25]
  logP: 1.6
[26]
  pKa: 9.4
[5]
  Papp A→B: 20.6 ×10⁻⁶ cm/s
[6]
  CLhep predicted at 1 µM: 2.6 mL/min/kg
[7]
  IC50: 19 nM
[39]
  Kp at 1 h: 0.3

## C=CCN(CC=C)C(=O)[C@@]1(c2cccs2)C[C@H]1CN.Cl
[40]
  half-life: 0.79 h
[41]
  CL renal: 3.9 mL/min/kg
[42]
  AUC: 3020 ng·h/mL
[43]
  clearance: 135 mL/min/kg
[44]
  Vd: 3.6 L/kg
[45]
  Tmax: 0.3 h
[46]
  AUC: 17100 ng·h/mL
[47]
  Vd: 5.4 L/kg
[48]
  bioavailability: 92%
[49]
  Cmax: 905 ng/mL
[50]
  Tmax: 1.8 h
[51]
  Vd: 3.8 L/kg
[52]
  clearance: 19.2 mL/min/kg
[53]
  Tmax: 4.5 h
[54]
  bioavailability: 78%
[55]
  Cmax: 1730 ng/mL
[56]
  half-life: 2.4 h
[57]
  bioavailability: 34%
[58]
  half-life: 2.1 h
[59]
  clearance: 22.9 mL/min/kg
[60]
  AUC: 6320 ng·h/mL
[61]
  CL renal: 2 mL/min/kg

## C#CCN(CC#C)C(=O)[C@@]1(c2cccs2)C[C@H]1CN
[2]
  IC50: 26 nM
[16]
  logD: 0.2
[3]
  IC50: > 10000 nM
[4]
  CLhep predicted at 1 µM: 43 mL/min/kg
[25]
  logP: 1.5
[26]
  pKa: 9.3
[5]
  Papp A→B: 25 ×10⁻⁶ cm/s
[6]
  CLhep predicted at 1 µM: 2.6 mL/min/kg
[7]
  IC50: 6 nM
